Reference: US6514942B1, “Methods and compositions for stimulating T-lymphocytes” (The Board of Regents, The University of Texas System, priority 1995, dated 2003)

Columns and labels:
Format in all cases: cell-based, human
C1R:A2 cells [1] = assay: Lysis of peptide-sensitized C1R:A2 cells by CTL cultures induced in vitro with C43 and C84; details: E:T 10:1, donor 51
C1R:A2 cells [2] = assay: Ag specificity of the 41.CD8+ CTL line on peptide-pulsed targets; details: peptide-pulsed C1R:A2, E:T 10:1
Procedure: (§1) FIG. 2A. Ag specificity of the 41.CD8^+ CTL line. C1R:A2 cells were pre-pulsed with either HER-2 peptides or control MUC-1 peptides before being incubated with effectors. The effector to target ratio was 10:1. C1R:A1 and C1R:A3 targets were pre-pulsed with the same peptides in the same conditions as C1R:A2 cells. Results for C1R:A1 and C1R:A3 show the difference between specific lysis of targets preincubated with peptides and control C1R:A1 and C1R:A3 targets. Specific lysis of control C1R:A1 and C1R:A3 cells was less than 10% at the same E:T ratio. Shown in FIG. 2A are results after 4 hrs' incubation.
Tumor cells and fibroblasts were labeled with 200 μCi of ^51Cr (Na^51CrO4; Amersham, Arlington Heights, Ill.) for 90 min at 37° C. (Ioannides et al., 1991). Lymphoblastoid cells and HLA-A2 transfectants were labeled overnight in RPMI-FCS, then washed three times and incubated with effector cells in RPMI-FCS in an incubator with 5%. CO2 (Bednarek et al., 1991; Gammon et al., 1992). When peptide recognition was determined, targets were incubated with 25 μM of peptides overnight during ^51Cr labeling or with 10 μM peptide for 2 h at 37° C. in RPMI-FCS then washed three times before being incubated with effector cells. Separate controls for spontaneous and total lysis were made for each peptide-pulsed target (Ioannides et al., 1991; Bednarek et al., 1991; Gammon et al., 1992). After 4-5 h, 100 μl of supernatant was collected and counted. To determine maximum lysis in 20-h assays, plates were left undisturbed in the incubator and the supernatant was collected after overnight incubation. For cold target inhibition studies, C1R:A2 cells were preincubated with HER-2 or control peptides overnight, then washed and admixed with ^51Cr-labeled targets at 2:1 and 6:1 (cold:hot targets) ratios. Percentage lysis was calculated from the formula: 100×[(E−S)/(T−S)], where E is experimental release, S is release in the absence of CTL, and T is release in 2 M HCl.
These cultures were propagated and expanded by periodic cycles of restimulation with peptide-pulsed fresh autologous PBMC as antigen-presenting cells. After the fourth stimulation cells were gradually adapted to growth in RPMI-FCS by replacing 25% of the culture medium every 3 days with RPMI-FCS over a period of 2 weeks. CD3^+CD8^+CD4^− cells were isolated from bulk CTL cultures by positive selection on anti-CD8 mAb-coated culture flasks (AIS Micro CELLector, Applied Immune Sciences, Menlo Park, Calif.) as described (Letessier et al., 1991). Isolated CD8^+ cells were restimulated with HER-2 peptide-pulsed PBMC, either autologous or in some instances allogeneic that matched only HLA-A2 with the responding cells. […]

[3] = tested on: C1R:A1 cells (HLA-A1 transfectants); assay: as above
Procedure: as §1
Tumor cells and fibroblasts were labeled with 200 μCi of ^51Cr (Na^51CrO4; Amersham, Arlington Heights, Ill.) for 90 min at 37° C. (Ioannides et al., 1991). Lymphoblastoid cells and HLA-A2 transfectants were labeled overnight in RPMI-FCS, then washed three times and incubated with effector cells in RPMI-FCS in an incubator with 5%. […] When peptide recognition was determined, targets were incubated with 25 μM of peptides overnight during ^51Cr labeling or with 10 μM peptide for 2 h at 37° C. in RPMI-FCS then washed three times before being incubated with effector cells. […] After 4-5 h, 100 μl of supernatant was collected and counted. […] Percentage lysis was calculated from the formula: 100×[(E−S)/(T−S)], where E is experimental release, S is release in the absence of CTL, and T is release in 2 M HCl. […]

C1R:A2 and T2 cells = assay: Lysis by LAK cells in presence of peptides
From the text: It is unlikely that tumor killing by 41.CD8^+ CTL reflects LAK type activity. LAK cells lyse K562 with higher efficiency than they lyse human tumors (Grimm et al., 1982). Also, both C1R:A2 and SkOV3.A2 were transfected with the same HLA-A2 plasmid expression vector. […] In separate studies, LAK cells lysed effectively both C1R:A2 and T2 cells. This lysis was not affected by C43/C84 or mutated peptides based on this sequence.

| Sequence | difference between HER-2 peptide and control targets recognition (C1R:A2 cells [1]; 4-hr assay) | difference between HER-2 peptide and control targets recognition (C1R:A2 cells [1]; 20-hr assay) | recognition by 41.CD8+ CTL line (C1R:A2 cells [2]) | lysis of peptide pulsed versus control targets by 41.CD8+ CTL [3] | effect on lysis by LAK cells (C1R:A2 and T2 cells) |
| --- | --- | --- | --- | --- | --- |
| ELVSEFSRV [Peptide C84, HER-2:971-979 analog, Met(P9) substituted by Val] | not significant | significant | recognized | failed to elicit a higher lysis of peptide pulsed than of control targets | not affected |
| RFRELVSEFSRMAR [Peptide C43, HER-2:968-981 14mer peptide] | not significant | significant | recognized | failed to elicit a higher lysis of peptide pulsed than of control targets | not affected |
